In the kinase profiling compilation of Christmann-Franck et al. (2016):

Tests used:
Assay in all cases: radiometric filter-binding kinase assay, Kinase HotSpot
Details in all cases: compound 0.5 µM; ATP 10 µM
MLTK (human) = MLTK (human) (UniProt Q9NYL2)
GSK3B (human) = GSK3B (human) (UniProt P49841)
MINK1 (human) = MINK1 (human) (UniProt Q8N4C8)
MET (human) = MET (human) (UniProt P08581)
ABL2 (human) = ABL2 (human) (UniProt P42684)
HIPK3 (human) = HIPK3 (human) (UniProt Q9H422)
EPHB4 (human) = EPHB4 (human) (UniProt P54760)
RPS6KA4 KD2 (human) = RPS6KA4 KD2 (human) (UniProt O75676)
CDK7 CCNH MNAT1 (human) = CDK7 CCNH MNAT1 (human) (UniProt P50613+P51948+P51946)
Chain of CDK7 CCNH MNAT1 (human) (P50613 whole entry, looked up): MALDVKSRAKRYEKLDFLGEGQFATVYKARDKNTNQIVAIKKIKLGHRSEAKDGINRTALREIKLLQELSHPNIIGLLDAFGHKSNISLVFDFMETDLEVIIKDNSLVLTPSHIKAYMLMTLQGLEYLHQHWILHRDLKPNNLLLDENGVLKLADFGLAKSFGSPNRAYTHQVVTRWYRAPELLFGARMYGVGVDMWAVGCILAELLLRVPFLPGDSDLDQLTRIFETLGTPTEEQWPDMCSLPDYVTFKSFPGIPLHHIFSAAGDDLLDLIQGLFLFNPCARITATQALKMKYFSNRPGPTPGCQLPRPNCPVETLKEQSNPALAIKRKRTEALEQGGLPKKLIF
Chain of CDK7 CCNH MNAT1 (human) (P51946 whole entry, looked up): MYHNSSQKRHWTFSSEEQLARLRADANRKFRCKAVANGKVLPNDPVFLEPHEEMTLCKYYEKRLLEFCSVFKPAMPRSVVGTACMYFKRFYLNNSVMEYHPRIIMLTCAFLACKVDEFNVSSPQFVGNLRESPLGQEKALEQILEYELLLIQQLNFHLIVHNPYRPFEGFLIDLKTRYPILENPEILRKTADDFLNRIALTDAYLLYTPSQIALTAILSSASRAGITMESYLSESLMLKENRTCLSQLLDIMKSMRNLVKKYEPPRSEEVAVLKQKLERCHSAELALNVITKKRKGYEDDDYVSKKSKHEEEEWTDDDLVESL
Chain of CDK7 CCNH MNAT1 (human) (P51948 whole entry, looked up): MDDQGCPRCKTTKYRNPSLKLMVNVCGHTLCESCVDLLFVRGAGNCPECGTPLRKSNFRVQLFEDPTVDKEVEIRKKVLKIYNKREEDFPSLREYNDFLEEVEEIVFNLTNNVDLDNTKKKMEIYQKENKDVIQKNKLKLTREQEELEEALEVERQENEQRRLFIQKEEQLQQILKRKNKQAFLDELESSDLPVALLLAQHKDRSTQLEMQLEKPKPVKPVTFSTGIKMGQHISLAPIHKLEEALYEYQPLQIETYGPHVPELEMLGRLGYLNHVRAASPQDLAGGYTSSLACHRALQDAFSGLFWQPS

TAOK2 (human) = TAOK2 (human) (UniProt Q9UL54)
MAPK1 (human) = MAPK1 (human) (UniProt P28482)
CLK3 (human) = CLK3 (human) (UniProt P49761)
MAP3K7 TAB1 (human) = MAP3K7 TAB1 (human) (UniProt O43318+Q15750)
MAPK8 (human) = MAPK8 (human) (UniProt P45983)
PRKCB1 (human) = PRKCB1 (human) (UniProt P05771)
Chain of PRKCB1 (human) (P05771 whole entry, looked up): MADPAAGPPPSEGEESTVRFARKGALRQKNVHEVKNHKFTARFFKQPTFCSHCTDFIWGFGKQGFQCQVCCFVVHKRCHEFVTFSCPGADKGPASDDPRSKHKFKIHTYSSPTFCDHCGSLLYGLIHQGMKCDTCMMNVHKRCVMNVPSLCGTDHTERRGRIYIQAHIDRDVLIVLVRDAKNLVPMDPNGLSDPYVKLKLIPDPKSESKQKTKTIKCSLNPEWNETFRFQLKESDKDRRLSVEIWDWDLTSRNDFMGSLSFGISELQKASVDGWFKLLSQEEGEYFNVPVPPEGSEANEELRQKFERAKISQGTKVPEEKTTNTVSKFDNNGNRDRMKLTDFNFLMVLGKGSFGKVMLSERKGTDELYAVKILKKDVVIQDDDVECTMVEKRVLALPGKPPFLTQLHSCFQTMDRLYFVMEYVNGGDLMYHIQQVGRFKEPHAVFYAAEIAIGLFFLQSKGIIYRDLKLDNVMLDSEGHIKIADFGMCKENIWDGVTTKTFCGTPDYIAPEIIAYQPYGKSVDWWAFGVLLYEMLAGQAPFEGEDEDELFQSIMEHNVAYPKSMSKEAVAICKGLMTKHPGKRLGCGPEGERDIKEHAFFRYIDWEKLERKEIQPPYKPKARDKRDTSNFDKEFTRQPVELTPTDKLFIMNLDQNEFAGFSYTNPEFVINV

NEK4 (human) = NEK4 (human) (UniProt P51957)
CSF1R (human) = CSF1R (human) (UniProt P07333)
Chain of CSF1R (human) (P07333 whole entry, looked up): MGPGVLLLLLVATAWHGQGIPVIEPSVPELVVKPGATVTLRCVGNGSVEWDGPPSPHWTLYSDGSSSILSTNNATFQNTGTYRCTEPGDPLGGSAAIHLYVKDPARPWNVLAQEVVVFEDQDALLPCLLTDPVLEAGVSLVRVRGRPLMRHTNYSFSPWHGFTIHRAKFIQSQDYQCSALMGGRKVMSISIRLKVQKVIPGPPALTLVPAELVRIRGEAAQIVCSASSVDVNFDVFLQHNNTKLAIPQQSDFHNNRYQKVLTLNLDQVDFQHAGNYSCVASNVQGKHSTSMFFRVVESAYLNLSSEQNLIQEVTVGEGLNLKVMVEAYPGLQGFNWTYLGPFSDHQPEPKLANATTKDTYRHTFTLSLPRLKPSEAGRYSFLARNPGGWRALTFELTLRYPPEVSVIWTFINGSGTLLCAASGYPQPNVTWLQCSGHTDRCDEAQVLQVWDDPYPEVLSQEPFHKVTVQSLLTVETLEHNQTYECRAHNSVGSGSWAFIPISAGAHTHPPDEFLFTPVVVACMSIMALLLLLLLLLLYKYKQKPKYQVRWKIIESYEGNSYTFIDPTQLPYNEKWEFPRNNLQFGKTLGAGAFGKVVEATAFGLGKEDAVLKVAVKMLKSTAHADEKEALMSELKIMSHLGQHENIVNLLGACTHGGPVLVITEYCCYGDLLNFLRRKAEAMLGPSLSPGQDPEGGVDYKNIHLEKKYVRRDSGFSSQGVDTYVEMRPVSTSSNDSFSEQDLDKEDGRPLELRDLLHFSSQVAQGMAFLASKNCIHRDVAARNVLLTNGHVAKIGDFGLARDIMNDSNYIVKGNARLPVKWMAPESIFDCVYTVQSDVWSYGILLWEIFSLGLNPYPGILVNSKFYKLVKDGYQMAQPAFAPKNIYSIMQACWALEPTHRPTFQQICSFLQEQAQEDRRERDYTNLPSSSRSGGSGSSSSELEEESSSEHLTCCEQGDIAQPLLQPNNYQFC

PRKD3 (human) = PRKD3 (human) (UniProt O94806)
Chain of PRKD3 (human) (O94806 whole entry, looked up): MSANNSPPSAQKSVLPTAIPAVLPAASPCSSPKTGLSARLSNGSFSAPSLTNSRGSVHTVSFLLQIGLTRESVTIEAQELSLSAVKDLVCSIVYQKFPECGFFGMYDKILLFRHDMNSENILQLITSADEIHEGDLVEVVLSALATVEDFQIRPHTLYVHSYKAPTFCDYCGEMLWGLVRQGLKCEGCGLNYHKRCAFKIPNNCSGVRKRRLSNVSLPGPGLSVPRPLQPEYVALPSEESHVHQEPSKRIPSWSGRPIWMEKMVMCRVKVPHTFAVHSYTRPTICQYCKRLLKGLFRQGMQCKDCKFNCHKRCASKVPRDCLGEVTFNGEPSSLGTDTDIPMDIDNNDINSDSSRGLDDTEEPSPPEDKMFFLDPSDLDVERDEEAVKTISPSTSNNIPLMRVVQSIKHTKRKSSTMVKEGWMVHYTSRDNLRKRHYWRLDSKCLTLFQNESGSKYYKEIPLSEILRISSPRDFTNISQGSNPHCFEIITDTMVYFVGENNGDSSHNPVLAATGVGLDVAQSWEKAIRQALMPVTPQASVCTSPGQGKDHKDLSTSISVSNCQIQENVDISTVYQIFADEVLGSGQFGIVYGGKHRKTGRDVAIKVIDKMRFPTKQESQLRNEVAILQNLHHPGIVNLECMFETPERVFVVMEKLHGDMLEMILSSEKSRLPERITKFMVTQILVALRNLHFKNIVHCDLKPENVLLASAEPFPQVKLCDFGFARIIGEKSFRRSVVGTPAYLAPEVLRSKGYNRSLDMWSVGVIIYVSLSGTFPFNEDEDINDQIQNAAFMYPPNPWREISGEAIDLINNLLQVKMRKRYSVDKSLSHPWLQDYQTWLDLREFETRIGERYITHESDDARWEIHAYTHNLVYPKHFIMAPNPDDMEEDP

AKT3 (human) = AKT3 (human) (UniProt Q9Y243)
CAMK2A (human) = CAMK2A (human) (UniProt Q9UQM7)
CDK9 CCNT1 (human) = CDK9 CCNT1 (human) (UniProt P50750+O60563)
NTRK3 (human) = NTRK3 (human) (UniProt Q16288)
MAP3K14 (human) = MAP3K14 (human) (UniProt Q99558)
GSG2 (human) = GSG2 (human) (UniProt Q8TF76)
SRC (human) = SRC (human) (UniProt P12931)
MAP3K11 (human) = MAP3K11 (human) (UniProt Q16584)
MARK2 (human) = MARK2 (human) (UniProt Q7KZI7)
CDK4 CCND1 (human) = CDK4 CCND1 (human) (UniProt P24385+P11802)
VRK1 (human) = VRK1 (human) (UniProt Q99986)
NEK9 (human) = NEK9 (human) (UniProt Q8TD19)
ALK (human) = ALK (human) (UniProt Q9UM73)
EPHA7 (human) = EPHA7 (human) (UniProt Q15375)
MUSK (human) = MUSK (human) (UniProt O15146)
DAPK1 (human) = DAPK1 (human) (UniProt P53355)
Chain of DAPK1 (human) (P53355 whole entry, looked up): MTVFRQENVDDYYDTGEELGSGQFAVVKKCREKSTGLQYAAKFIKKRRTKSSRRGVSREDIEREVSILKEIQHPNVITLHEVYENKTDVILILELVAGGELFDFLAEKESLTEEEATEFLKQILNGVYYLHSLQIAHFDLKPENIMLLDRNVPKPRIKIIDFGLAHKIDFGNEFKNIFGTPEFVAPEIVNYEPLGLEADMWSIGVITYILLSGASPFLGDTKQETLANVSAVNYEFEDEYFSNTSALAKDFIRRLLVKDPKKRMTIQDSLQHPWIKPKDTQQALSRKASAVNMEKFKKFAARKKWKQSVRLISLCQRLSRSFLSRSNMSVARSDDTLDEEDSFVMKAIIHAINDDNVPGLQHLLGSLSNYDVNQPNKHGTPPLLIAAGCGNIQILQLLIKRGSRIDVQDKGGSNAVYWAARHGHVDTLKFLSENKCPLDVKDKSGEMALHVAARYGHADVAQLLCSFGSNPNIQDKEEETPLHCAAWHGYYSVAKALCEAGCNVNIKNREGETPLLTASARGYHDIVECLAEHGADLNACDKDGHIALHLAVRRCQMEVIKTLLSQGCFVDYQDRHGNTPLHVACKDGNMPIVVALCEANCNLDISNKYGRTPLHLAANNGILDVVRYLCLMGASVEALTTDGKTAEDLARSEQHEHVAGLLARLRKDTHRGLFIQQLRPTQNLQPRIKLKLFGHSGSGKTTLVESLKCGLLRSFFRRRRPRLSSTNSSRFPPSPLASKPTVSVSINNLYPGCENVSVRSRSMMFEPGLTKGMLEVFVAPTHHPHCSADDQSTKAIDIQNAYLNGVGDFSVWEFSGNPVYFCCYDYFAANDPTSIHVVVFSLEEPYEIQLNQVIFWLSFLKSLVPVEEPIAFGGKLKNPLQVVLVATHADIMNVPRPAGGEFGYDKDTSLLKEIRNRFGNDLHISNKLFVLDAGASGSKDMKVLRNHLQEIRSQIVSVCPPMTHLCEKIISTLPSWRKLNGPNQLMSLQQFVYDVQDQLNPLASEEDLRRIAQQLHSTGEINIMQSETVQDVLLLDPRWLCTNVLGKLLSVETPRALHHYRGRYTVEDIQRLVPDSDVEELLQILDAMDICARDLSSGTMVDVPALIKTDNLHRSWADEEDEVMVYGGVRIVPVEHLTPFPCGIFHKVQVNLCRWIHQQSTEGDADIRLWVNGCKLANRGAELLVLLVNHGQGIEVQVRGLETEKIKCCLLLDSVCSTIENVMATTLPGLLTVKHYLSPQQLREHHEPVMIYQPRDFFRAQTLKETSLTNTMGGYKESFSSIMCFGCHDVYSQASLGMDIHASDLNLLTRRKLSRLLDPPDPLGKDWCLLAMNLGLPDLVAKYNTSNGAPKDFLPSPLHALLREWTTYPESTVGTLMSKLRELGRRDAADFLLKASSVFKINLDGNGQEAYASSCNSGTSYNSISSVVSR

ROCK1 (human) = ROCK1 (human) (UniProt Q13464)
RIPK2 (human) = RIPK2 (human) (UniProt O43353)
RPS6KA5 KD2 (human) = RPS6KA5 KD2 (human) (UniProt O75582)
CDK5 CDK5R1 p35 (human) = CDK5 CDK5R1 p35 (human) (UniProt Q00535+Q15078)
EPHB2 (human) = EPHB2 (human) (UniProt P29323)
ROS1 (human) = ROS1 (human) (UniProt P08922)

SMILES | residual activity (MLTK (human)) | residual activity (GSK3B (human)) | residual activity (MINK1 (human)) | residual activity (MET (human)) | residual activity (ABL2 (human)) | residual activity (HIPK3 (human)) | residual activity (EPHB4 (human)) | residual activity (RPS6KA4 KD2 (human)) | residual activity (CDK7 CCNH MNAT1 (human)) | residual activity (TAOK2 (human)) | residual activity (MAPK1 (human)) | residual activity (CLK3 (human)) | residual activity (MAP3K7 TAB1 (human)) | residual activity (MAPK8 (human)) | residual activity (PRKCB1 (human)) | residual activity (NEK4 (human)) | residual activity (CSF1R (human)) | residual activity (PRKD3 (human)) | residual activity (AKT3 (human)) | residual activity (CAMK2A (human)) | also measured
CC#CC(=O)Nc1cc2c(Nc3ccc(F)c(Cl)c3)ncnc2cn1 | 85.8% | 93% | 91.9% | 96.3% | 89.4% | 92.9% | 83.4% | 100% | 101% | 106% | 101% | 47.1% | 100% | 98.9% | 97.4% | 85.8% | 101% | 103% | 97.8% | 108% | residual activity (CDK9 CCNT1 (human)): 90.6%; residual activity (NTRK3 (human)): 95.3%; residual activity (MAP3K14 (human)): 80.4%; residual activity (GSG2 (human)): 101%; residual activity (SRC (human)): 97.7%; residual activity (MAP3K11 (human)): 99.3%; residual activity (MARK2 (human)): 105%; residual activity (CDK4 CCND1 (human)): 98.6%; residual activity (VRK1 (human)): 87.8%; residual activity (NEK9 (human)): 104%; residual activity (ALK (human)): 103%; residual activity (EPHA7 (human)): 91.3%; residual activity (MUSK (human)): 79.6%; residual activity (DAPK1 (human)): 94.7%; residual activity (ROCK1 (human)): 96.2%; residual activity (RIPK2 (human)): 38.7%; residual activity (RPS6KA5 KD2 (human)): 103%; residual activity (CDK5 CDK5R1 p35 (human)): 97.9%; residual activity (EPHB2 (human)): 80.9%; residual activity (ROS1 (human)): 91.3%
CC(=O)c1ccc(N2CCOCC2)cc1O | 97.8% | 122% | 94.3% | 122% | 104% | 101% | 97.6% | 103% | 105% | 107% | 97.6% | 101% | 98.6% | 96.8% | 96.3% | 103% | 100% | 98.4% | 107% | 104% | residual activity (CDK9 CCNT1 (human)): 100%; residual activity (NTRK3 (human)): 101%; residual activity (MAP3K14 (human)): 82.6%; residual activity (GSG2 (human)): 79.6%; residual activity (SRC (human)): 104%; residual activity (MAP3K11 (human)): 94.8%; residual activity (MARK2 (human)): 107%; residual activity (CDK4 CCND1 (human)): 94.4%; residual activity (VRK1 (human)): 98.1%; residual activity (NEK9 (human)): 93.9%; residual activity (ALK (human)): 106%; residual activity (EPHA7 (human)): 95.5%; residual activity (MUSK (human)): 93.9%; residual activity (DAPK1 (human)): 92.8%; residual activity (ROCK1 (human)): 92.9%; residual activity (RIPK2 (human)): 103%; residual activity (RPS6KA5 KD2 (human)): 105%; residual activity (CDK5 CDK5R1 p35 (human)): 97.1%; residual activity (EPHB2 (human)): 82.5%; residual activity (ROS1 (human)): 102%
CC[n+]1c(/C=C/N(C)c2ccccc2)n(-c2ccccc2)c2ccc(-c3nc4ccccc4s3)cc21 | 93.8% | 105% | 99% | 108% | 95.7% | 105% | 103% | 94.6% | 97.8% | 97.7% | 112% | 114% | 98.8% | 96.3% | 102% | 90.5% | 108% | 97.4% | 109% | 103% | residual activity (CDK9 CCNT1 (human)): 89.5%; residual activity (NTRK3 (human)): 100%; residual activity (MAP3K14 (human)): 96%; residual activity (GSG2 (human)): 110%; residual activity (SRC (human)): 94.5%; residual activity (MAP3K11 (human)): 102%; residual activity (MARK2 (human)): 91.6%; residual activity (CDK4 CCND1 (human)): 107%; residual activity (VRK1 (human)): 90.9%; residual activity (NEK9 (human)): 108%; residual activity (ALK (human)): 99.1%; residual activity (EPHA7 (human)): 97.9%; residual activity (MUSK (human)): 94.7%; residual activity (DAPK1 (human)): 74.7%; residual activity (ROCK1 (human)): 98.1%; residual activity (RIPK2 (human)): 88.6%; residual activity (RPS6KA5 KD2 (human)): 111%; residual activity (CDK5 CDK5R1 p35 (human)): 97.6%; residual activity (EPHB2 (human)): 99.1%; residual activity (ROS1 (human)): 99.1%
Cc1ccc(NC2=CC(=O)c3sc(C)nc3C2=O)cc1 | 94% | 82% | 101% | 99.7% | 98.3% | 101% | 89.7% | 88.4% | 95.4% | 96.6% | 91.4% | 98.6% | 99.1% | 100% | 95.7% | 95.3% | 89.9% | 93.5% | 92.8% | 101% | residual activity (CDK9 CCNT1 (human)): 97.6%; residual activity (NTRK3 (human)): 94%; residual activity (MAP3K14 (human)): 98.2%; residual activity (GSG2 (human)): 86.6%; residual activity (SRC (human)): 79.6%; residual activity (MAP3K11 (human)): 101%; residual activity (MARK2 (human)): 91.1%; residual activity (CDK4 CCND1 (human)): 92%; residual activity (VRK1 (human)): 108%; residual activity (NEK9 (human)): 99.4%; residual activity (ALK (human)): 105%; residual activity (EPHA7 (human)): 92.3%; residual activity (MUSK (human)): 89.1%; residual activity (DAPK1 (human)): 105%; residual activity (ROCK1 (human)): 100%; residual activity (RIPK2 (human)): 95.2%; residual activity (RPS6KA5 KD2 (human)): 87.7%; residual activity (CDK5 CDK5R1 p35 (human)): 86.3%; residual activity (EPHB2 (human)): 100%; residual activity (ROS1 (human)): 107%
CCN(CC)C(=O)c1ccc(Nc2nc(OCC3CCCCC3)c3nc[nH]c3n2)cc1 | 91.4% | 85% | 88.5% | 85.3% | 67.8% | 96.4% | 85% | 79.8% | 87.6% | 66% | 106% | 84.1% | 57.1% | 51.1% | 103% | 87.9% | 5.73% | 66.5% | 101% | 105% | residual activity (CDK9 CCNT1 (human)): 88.8%; residual activity (NTRK3 (human)): 32.3%; residual activity (MAP3K14 (human)): 132%; residual activity (GSG2 (human)): 94.1%; residual activity (SRC (human)): 72.8%; residual activity (MAP3K11 (human)): 5.55%; residual activity (MARK2 (human)): 75.3%; residual activity (CDK4 CCND1 (human)): 82%; residual activity (VRK1 (human)): 93.1%; residual activity (NEK9 (human)): 81.9%; residual activity (ALK (human)): 74.9%; residual activity (EPHA7 (human)): 72.8%; residual activity (MUSK (human)): 77.5%; residual activity (DAPK1 (human)): 81.6%; residual activity (ROCK1 (human)): 54.9%; residual activity (RIPK2 (human)): 97.2%; residual activity (RPS6KA5 KD2 (human)): 89.8%; residual activity (CDK5 CDK5R1 p35 (human)): 77.1%; residual activity (EPHB2 (human)): 93.7%; residual activity (ROS1 (human)): 69.9%
